Common to all, as to type: cell-based
The subject of test [1] is MOLT-3 human leukemia cells. The experiment in a line: MTT cytotoxicity assay, MOLT-3. The note with it: 24–36 hours. The method, then:
(§1) The cytotoxicity assay of various compounds against human tumor cell lines was performed using the MTT (3-[4,5-dimethylthiazol-2-yl]-2,5-diphenyl tetrazolium bromide) assay (Boehringer Mannheim Corp., Indianapolis, Ind.). Briefly, exponentially growing tumor cells were seeded into a 96-well plate at a density of 2.5×10^4 cells/well and incubated for 36 hours at 37° C. prior to drug exposure. On the day of treatment, culture medium was carefully aspirated from the wells and replaced with fresh medium containing the quinazoline compounds at concentrations ranging from 0.1 to 250 μM. Triplicate wells were used for each treatment.
(§2) Human cell lines were obtained from American Type Culture Collection (Rockville, Md.) and maintained as a continuous cell line in Dulbecco's modified Eagles' medium supplemented with 10% fetal bovine serum and antibiotics. Cells used in this study include human leukemia cells (NALM-6 and MOLT-3), human breast cancer cells ([…]), human prostate cancer cells (PC3), and human brain tumor cells (U373).
(§3) The cells were incubated with the various compounds for 24–36 hours at 37° C. in a humidified 5% CO2 atmosphere. To each well, 10 μl of MTT (0.5 mg/ml final concentration) was added and the plates were incubated at 37° C. for 4 hours to allow MTT to form formazan crystals by reacting with metabolically active cells. The formazan crystals were solubilized overnight at 37° C. in a solution containing 10% SDS in 0.01 M HCl. The absorbance of each well was measured in a microplate reader (Labsystems) at 540 nm and a reference wavelength of 690 nm. To translate the OD 540 values into the number of live cells in each well, the OD 540 values were compared to those on standard OD 540—versus—cell number curves generated for each cell line. The percent survival was calculated using the formula:
(§4) [formula] The IC50 values were calculated by non-linear regression analysis. Detection of Apoptosis

In test [2] the test system is NALM-6 human leukemia cells. Nature of the test: MTT cytotoxicity assay, NALM-6. The conditions noted are these: 24–36 hours. The method, then:
as §1, §2, §3, §4

Test [3] has as its system BT20 human breast cancer cells. Nature of the test: MTT cytotoxicity assay, BT20. The note with it: 24–36 hours. The protocol:
as §1, §2, §3, §4

In test [4] the test system is U373 human brain tumor cells. The experiment in a line: MTT cytotoxicity assay, U373. The conditions noted are these: Homo sapiens, U373 MG, 24–36 hours. The method, then:
as §1, §2, §3, §4

Setting [5] is: Homo sapiens, MOLT-3, Table 1, bromo substituted.
Setting [6] is: Homo sapiens, NALM-6, Table 1, bromo substituted.
Setting [7] is: Homo sapiens, BT-20, Table 1, bromo substituted.
Where [8] appears, read: Homo sapiens, MOLT-3, Table 2, chloro substituted.
Where [9] appears, read: Homo sapiens, NALM-6, Table 2, chloro substituted.
Where [10] appears, read: Homo sapiens, BT-20, Table 2, chloro substituted.
The mark [11] stands for this setting: Homo sapiens, MOLT-3, Table 4, OH substituted.
Setting [12] is: Homo sapiens, NALM-6, Table 4, OH substituted.
[13] abbreviates: Homo sapiens, BT-20, Table 4, OH substituted.

With `COc1cc2ncnc(Nc3cccc(Br)c3)c2cc1OC` [HI-P79, 4-(3′-Bromophenyl)-amino-6,7-dimethoxyquinazoline], the results for the IC50 in test [1] (setting [5]), in test [2] (setting [6]) and in test [3] (setting [7]) were 195 µM, 142 µM and 202 µM, respectively.
For the compound `COc1cc2ncnc(Nc3cccc(Cl)c3)c2cc1OC` [HI-P87, 4-(3′-Chlorophenyl)-amino-6,7-dimethoxyquinazoline], the IC50 in test [1] (setting [8]) was over 105 µM; in test [2] (setting [9]), 95.9 µM; in test [3] (setting [10]), over 250 µM.
Consider `COc1cc2ncnc(Nc3ccc(Br)cc3C(=O)O)c2cc1OC` [HI-P88, 4-(4′-Bromo-2′-caboxylphenyl)-amino-6,7-dimethoxyquinazoline], for which the IC50 in test [1] (setting [5]), in test [2] (setting [6]) and in test [3] (setting [7]) was over 250 µM throughout.
With `COc1cc2ncnc(Nc3cc(Cl)ccc3O)c2cc1OC` [HI-P93, 4-(3′-Chlooro-6′-hydroxylphenyl)amino-6,7-dimethoxyquinazoline], the half-inhibitory concentration (IC50) in test [1] (setting [8]) is over 250 µM; in test [1] (setting [11]), over 250 µM; in test [2] (setting [9]), over 250 µM; in test [2] (setting [12]), over 250 µM; in test [4] (Table 4, OH substituted), over 250 µM; in test [3] (setting [10]), over 250 µM. The same compound yielded a 50% inhibitory concentration (IC50) in test [3] (setting [13]) of over 250 µM.
As to `COc1cc2ncnc(Nc3cc(Br)c(O)c(Br)c3)c2cc1OC` [HI-P97, 4-(3′,5′-Dibromo-4′-hydroxylphenyl)-amino-6,7-dimethoxyquinazoline], the IC50 in test [1] (setting [5]) is over 250 µM; in test [1] (Table 4, OH substituted), over 250 µM; in test [2] (setting [6]), over 250 µM; in test [2] (Table 4, OH substituted), over 250 µM; in test [4] (Table 4, OH substituted), 161 µM; in test [3] (setting [7]) it was 26.1 µM.
As for `COc1cc2ncnc(Nc3ccc(C)c(Br)c3)c2cc1OC` [HI-P111, 4-(3′-Bromo-4′-methylphenyl)-amino-6,7-dimethoxyquinazoline], the half-inhibitory concentration (IC50) was over 250 µM in test [1] (setting [5]), 201 µM in test [2] (setting [6]) and over 250 µM in test [3] (setting [7]).
In the case of `COc1cc2ncnc(Nc3ccc(O)c(Br)c3)c2cc1OC` [HI-P154, 4-(3′-Bromo-4′-hydroxylphenyl)-amino-6,7-dimethoxyquinazoline], the half-inhibitory concentration (IC50) in test [1] (setting [5]) is 9.1 µM; in test [2] (setting [6]), 12.5 µM; in test [3] (setting [7]), over 250 µM; in test [3] (Table 4, OH substituted), over 250 µM.
In the case of `COc1cc2ncnc(Nc3ccc4c(c3)Cc3cc(Br)ccc3-4)c2cc1OC` [HI-P160, 4-[(7′-Bromofluorene)-2′]-amino-6,7-dimethoxyquinazoline], the IC50 in test [1] (setting [5]) was found to be 241 µM; in test [2] (setting [6]), 135 µM; in test [3] (setting [7]) it was 25.5 µM.
`COc1cc2ncnc(C(=O)c3cccc(Br)c3)c2cc1OC` [HI-P164, 4-(3′-Bromobenzoyl)-6,7-dimethoxyquinazoline]: the IC50 in test [1] (setting [5]) is over 250 µM; in test [2] (setting [6]) it was over 250 µM; in test [3] (setting [7]), 39.2 µM.
On to `COc1cc2ncnc(Nc3cc(Cl)c(O)c(Cl)c3)c2cc1OC` [HI-P189, 4-(4′-Hydroxyl-3′,5′-dichlorophenyl)amino-6,7-dimethoxyquinazoline], for which the half-inhibitory concentration (IC50) is over 250 µM in test [1] (setting [8]); over 250 µM in test [1] (setting [11]); over 250 µM in test [2] (setting [9]); over 250 µM in test [2] (setting [12]); over 250 µM in test [4] (Table 4, OH substituted); over 250 µM in test [3] (setting [10]). Further, the IC50 in test [3] (setting [13]) is over 250 µM.
Regarding `COc1cc2ncnc(Nc3ccc(Br)cc3CO)c2cc1OC` [HI-P190, 4-(4′-Bromo-6′-hydroxymethylphenyl)-amino-6,7-dimethoxyquinazoline], the half-inhibitory concentration (IC50) in test [1] (setting [5]) was over 250 µM; in test [1] (setting [11]), over 250 µM; in test [2] (setting [6]) it was over 250 µM; in test [2] (setting [12]), over 250 µM; in test [4] (Table 4, OH substituted), over 250 µM; in test [3] (setting [7]), over 250 µM. The same compound returned a concentration for half-maximal inhibition (IC50) in test [3] (setting [13]) of over 250 µM.
Turning to `COc1cc2ncnc(Nc3ccc(O)cc3O)c2cc1OC` [HI-P192, 4-(2′,4′-Dihydroxyphenyl)-amino-6,7-dimethoxyquinazoline], the half-maximal inhibitory concentration (IC50) is over 250 µM in test [1] (setting [11]); over 250 µM in test [2] (setting [12]); over 250 µM in test [4] (Table 4, OH substituted); over 250 µM in test [3] (setting [13]).
With `COc1cc2ncnc(Nc3ccc(O)c(Cl)c3)c2cc1OC` [HI-P197, 4-(3′-Chloro-4′-hydroxylphenyl)-amino-6,7-dimethoxyquinazoline], the IC50 in test [1] (setting [8]) is 68 µM; in test [1] (setting [11]) it was 63.8 µM; in test [2] (setting [9]) it was 39.3 µM; in test [2] (setting [12]), 68.5 µM; in test [4] (Table 4, OH substituted), over 250 µM; in test [3] (setting [10]) it was 137 µM. In test [3] (setting [13]), this compound showed a half-maximal inhibitory concentration (IC50) of 71.5 µM.
On to `COc1cc2ncnc(Nc3ccc(C)c(Br)c3Br)c2cc1OC` [HI-P210, 4-(2′,3′-Dibromo-4′-methylphenyl)-amino-6,7-dimethoxyquinazoline], for which the concentration for half-maximal inhibition (IC50) in test [1] (setting [5]), in test [2] (setting [6]) and in test [3] (setting [7]) was over 250 µM in each case.
For the compound `COc1cc2ncnc(Nc3cc(Br)c(C)cc3Br)c2cc1OC` [HI-P211, 4-(2′,5′-Dibromo-4′-methylphenyl)-amino-6,7-dimethoxyquinazoline], the IC50 in test [1] (setting [5]), in test [2] (setting [6]) and in test [3] (setting [7]) was over 250 µM each time.
`COc1cc2ncnc(Nc3cc(Br)c(C)c(Br)c3)c2cc1OC` [HI-P212, 4-(3′,5′-Dibromo-4′-methylphenyl)-amino-6,7-dimethoxyquinazoline]: the IC50 in test [1] (setting [5]) was 54.5 µM; in test [2] (setting [6]), 52.7 µM; in test [3] (setting [7]), over 250 µM.
For `COc1cc2ncnc(Nc3c(Br)cc(Br)cc3Br)c2cc1OC` [HI-P222, 4-(2′, 4′, 6′-Tribromophenyl)amino-6,7-dimethoxyquinazoline], in that order: 48.3 µM, 34 µM and over 250 µM.
Taken in the same sequence, the figures for `COc1cc2ncnc(Nc3ccc(C)cc3)c2cc1OC` [HI-P234] were over 250 µM, over 250 µM and over 250 µM.
As to `COc1cc2ncnc(Nc3c(Br)cc(C)cc3Br)c2cc1OC` [HI-P241, 4-(2′,6′-Dibromo-4′-methylphenyl)-amino-6,7-dimethoxyquinazoline], the 50% inhibitory concentration (IC50) in test [1] (setting [5]), in test [2] (setting [6]) and in test [3] (setting [7]) was over 250 µM in each case.
For `COc1cc2ncnc(Nc3ccccc3)c2cc1OC` [HI-P258], the IC50 in test [1] (setting [5]), in test [2] (setting [6]) and in test [3] (setting [7]) was over 250 µM in each case.
Take `COc1cc2ncnc(Nc3ccc(Br)cc3)c2cc1OC` [HI-P260, 4-(4′-Bromophenyl)-amino-6,7-dimethoxyquinazoline]: the IC50 was found to be 51.3 µM in test [1] (setting [5]), 32.4 µM in test [2] (setting [6]) and 82.1 µM in test [3] (setting [7]).
As to `COc1cc2ncnc(Nc3ccccc3Br)c2cc1OC` [HI-P261, 4-(2′-Bromophenyl)-amino-6,7-dimethoxyquinazoline], the IC50 turned out to be 148 µM in test [1] (setting [5]), 72.6 µM in test [2] (setting [6]) and 219 µM in test [3] (setting [7]).
As for `COc1cc2ncnc(Nc3c(Br)cccc3Br)c2cc1OC` [HI-P262, 4-(2′,6′-Dibromophenyl)-amino-6,7-dimethoxyquinazoline], the concentration for half-maximal inhibition (IC50) in test [1] (setting [5]), in test [2] (setting [6]) and in test [3] (setting [7]) was over 250 µM throughout.
With `COc1cc2ncnc(Nc3ccccc3Cl)c2cc1OC` [HI-P268, 4-(2′-Chlorophenyl)-amino-6,7-dimethoxyquinazoline], the IC50 in test [1] (setting [8]) stood at 227 µM; in test [2] (setting [9]), 215 µM; in test [3] (setting [10]), 122 µM.
In the case of `COc1cc2ncnc(Nc3ccc(Cl)cc3)c2cc1OC` [HI-P269, 4-(4′-Chlorophenyl)-amino-6,7-dimethoxyquinazoline], the IC50 in test [1] (setting [8]), in test [2] (setting [9]) and in test [3] (setting [10]) was over 250 µM each time.
On to `COc1cc2ncnc(Nc3ccccc3I)c2cc1OC` [HI-P270, 4-(2′-Iodophenyl)-amino-6,7-dimethoxyquinazoline], for which the half-maximal inhibitory concentration (IC50) in test [1] (Homo sapiens, MOLT-3, Table 3, iodide substituted) was 78.9 µM; in test [2] (Homo sapiens, NALM-6, Table 3, iodide substituted), over 250 µM; in test [4] (Table 3, iodide substituted) it was over 250 µM; in test [3] (Homo sapiens, BT-20, Table 3, iodide substituted), over 250 µM.
Regarding `COc1cc2ncnc(Nc3ccc(Cl)c4ccccc34)c2cc1OC` [HI-P415, 4-(4′-Chloronaphthy-1′)-amino-6,7-dimethoxyquinazoline], the IC50 was over 250 µM in test [1] (setting [8]), 67.9 µM in test [2] (setting [9]) and 38.1 µM in test [3] (setting [10]).

These data come from US7038049B2, “Haloanilino quinazolines and therapeutic use thereof” (Parker Hughes Institute, priority 1999, dated 2006).
